Results published in patent US6906205B2, “Spiro and dispiro 1,2,4-trioxolane antimalarials” (Medicines for Malaria Venture MMV, priority 2002, dated 2005).

Experiments:
[1] = chemical properties of OZ277 salts; settings: salt of OZ277
P. berghei ANKA strain [2] = experiment: treatment: 3x3 mg/kg and 3x1 mg/kg po divided doses in infected mice; assay type: in vivo, Plasmodium berghei; settings: for Activity (%) p.o. SSV: percent reduction of parasitemia day 4
How it was run: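 NMRI mice infected i.v. with 2×10^7 P. berghei ANKA-parasitized erythrocytes on day 0, then dosed orally in SSV vehicle at 3×3 or 3×1 mg/kg on days 1–3. Day-4 Giemsa smears gave percent parasitemia reduction versus untreated controls; survival to day 30 counted as cure.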

P. berghei ANKA strain [3] = experiment: treatment: 3x10 mg/kg p.o. divided dose vs 1x30 mg/kg po single dose in infected mice; assay type: in vivo, Plasmodium berghei; settings: for Activity (%) p.o. SSV: percent reduction of parasitemia day 4; for Cures: 1 × 30 mg/kg, survival to day 30 post-infection = cure, cured/treated mice
Experimental: Moro NMRI male mice (Fü Albino specific pathogen free) weighing 18±2 g were infected intravenously (i.v.) with 2×10^7 P. berghei ANKA strain-infected erythrocytes from donor mice on day 0 of the experiment. From donor mice with circa 30% parasitemia, heparinized blood was taken and diluted in physiological saline to 10^8 parasitized erythrocytes per ml. An aliquot (0.2 ml) of this suspension was injected i.v. into experimental and control groups of mice. […] Throughout the experiments, mice were kept in groups of three or five animals in Makrolon type II cages in an air-conditioned animal room at 22 to 23° C.
They were administered per os (p.o.) in a total volume of 0.01 ml per gram of mouse. The activity of the compound was determined by a variety of methods outlined in subsequent sections. Survival time was also recorded, and survival to day 30 post-infection was considered to be a cure.
The first experiment conducted consisted of administration of a divided 3×10 mg/kg p.o. dose administered on days 1, 2, and 3 post-infection vs. a single 1×30 mg/kg po dose administered on day 1 post-infection. On day 4 post-infection, blood smears of all animals were prepared and stained with Giemsa. […] Compounds were administered orally in the SSV vehicle.

P. berghei ANKA strain [4] = experiment: prophylactic activity, single 100 mg/kg po dose before infection; assay type: in vivo, Plasmodium berghei; settings: reduction of parasitemia day 3 post-infection
Experimental: Moro NMRI male mice (Fü Albino specific pathogen free) weighing 18±2 g were infected intravenously (i.v.) with 2×10^7 P. berghei ANKA strain-infected erythrocytes from donor mice on day 0 of the experiment. From donor mice with circa 30% parasitemia, heparinized blood was taken and diluted in physiological saline to 10^8 parasitized erythrocytes per ml. An aliquot (0.2 ml) of this suspension was injected i.v. into experimental and control groups of mice. In untreated control mice, parasitemia rose regularly to 40 to 50% by day 3 post-infection and 70 to 80% by day 4 post-infection. The mice died between days 5 and 7 post-infection. Throughout the experiments, mice were kept in groups of three or five animals in Makrolon type II cages in an air-conditioned animal room at 22 to 23° C. A diet with p-aminobenzoic acid (PABA) of 45 mg (NAFAG FUTTER© food N^o 9009 PAB-45) per kg of body weight, and tap water is available ad libitum.
OZ compounds were prepared at an appropriate concentration, either as a solution or a suspension containing SSV (0.5% w/v CMC, 0.5% v/v benzyl alcohol, 0.4% v/v Tween 80, and 0.9% w/v sodium chloride in water). They were administered per os (p.o.) in a total volume of 0.01 ml per gram of mouse. The activity of the compound was determined by a variety of methods outlined in subsequent sections. Survival time was also recorded, and survival to day 30 post-infection was considered to be a cure.
Prophylactic activities of the compounds were compared after administering po single dose of 100 mg/kg to different groups of five animals at various times before infection. All groups including an untreated control group, were then infected at the same time. Parasitemia was determined for each animal on day 3 post-infection, and percent of reduction of the level of parasitemia compared to levels for animals given no drug is determined.

[5] = 3 × 1 mg/kg days 1, 2, 3 post-infection
[6] = 3 × 3 mg/kg days 1, 2, 3 post-infection
[7] = 1 × 30 mg/kg single dose day 1 post-infection
[8] = 3 × 10 mg/kg days 1, 2, 3 post-infection
[9] = single 100 mg/kg po 24 h before infection
[10] = single 100 mg/kg po 48 h before infection
[11] = single 100 mg/kg po 72 h before infection

| Compound | Chemical Stability [1] | Crystallinity [1] | Particle size (90% of particles less than) [1] | Physical stability [1] | Stability in analytical solution (up to 24 hrs) [1] | Survival (days) p.o. SSV (P. berghei ANKA strain [2]; [5]) [days] | Activity (%) p.o. SSV (P. berghei ANKA strain [2]; [5]) [%] | Survival (days) p.o. SSV (P. berghei ANKA strain [2]; [6]) [days] | Activity (%) p.o. SSV (P. berghei ANKA strain [2]; [6]) [%] | Survival (days) p.o. SSV (P. berghei ANKA strain [3]; [7]) [days] | Activity (%) p.o. SSV (P. berghei ANKA strain [3]; [7]) [%] | Cures (P. berghei ANKA strain [3]) | Survival (days) p.o. SSV (P. berghei ANKA strain [3]; [8]) [days] | Activity (%) p.o. SSV (P. berghei ANKA strain [3]; [8]) [%] | Prophylactic Activity (%) (P. berghei ANKA strain [4]; [9]) | Prophylactic Activity (%) (P. berghei ANKA strain [4]; [10]) | Prophylactic Activity (%) (P. berghei ANKA strain [4]; [11]) | Prophylactic Activity (%) (P. berghei ANKA strain [4]; single 100 mg/kg po at 0 h) |
| --- | --- | --- | --- | --- | --- | --- | --- | --- | --- | --- | --- | --- | --- | --- | --- | --- | --- | --- |
| CC(C)(N)CNC(=O)CC1CCC2(CC1)OOC1(O2)C2CC3CC(C2)CC1C3.O=C(O)CCC(=O)O (stereo not drawn) [Succinate] | Stable | Crystalline | ˜150 μm | Stable | Stable | – | – | – | – | – | – | – | – | – | – | – | – | – |
| CC(C)(N)CNC(=O)CC1CCC2(CC1)OOC1(O2)C2CC3CC(C2)CC1C3.Cc1ccc(S(=O)(=O)O)cc1 (stereo not drawn) [Tosylate] | Stable | Crystalline | ˜50 μm | Stable | Stable | – | – | – | – | – | – | – | – | – | – | – | – | – |
| CC(C)(N)CNC(=O)CC1CCC2(CC1)OOC1(O2)C2CC3CC(C2)CC1C3.Cc1ccc(S(=O)(=O)O)cc1 (stereo not drawn) [compound 277] | – | – | – | – | – | 9.4 | 83 | 14 | 100 | 10.4 | 99.92 | 0/5 | 27.6 | 100 | 25 | 7 | 9 | 100 |
| Cc1ccc(S(=O)(=O)O)cc1.O=C(CC1CCC2(CC1)OOC1(O2)C2CC3CC(C2)CC1C3)N1CCNCC1 (stereo not drawn) [compound 279] | – | – | – | – | – | 8.8 | 83 | 14.8 | 100 | 14.8 | 99.95 | 0/5 | 25.4 | 100 | 97 | 27 | 14 | 100 |
